Assay results reported in patent US5068247A, “2-aminopentanoic acid compounds and their use as immunosuppressants” (priority 1989, dated 1991).
In brackets after ≈: the same amount, converted by molar mass.

What was measured:
[1] = cytotoxicity to cultured tumor cell line K562; conditions: human, k562 cells, Suppression
Description: (§1) Cytotoxicity to various human tumor cell lines was examined as follows:
(§2) Cells of human cell lines, K562, MOLT4, U937 and HL60 were respectively suspended to the concentration of 4×10^5 cells/ml in the RPMI1640 culture medium supplemented with 20% FCS. Fifty μl of each suspension was added to each well of a 96-well microtest plate to which 50 μl of the test solution had been added. After culturing the suspension at 37° C. in an atmosphere of 5% carbon dioxide for 72 hours, the absorbancy at 570 nm was measured in the same way as with the colorimetry using MTT in Experiment Example 1, and the percent suppression was calculated by the following formula, which was used as an index of cytotoxicity.

[2] = system: K562; test: cytotoxicity to cultured tumor cell line K562
Description: as §1, §2

[3] = system: MOLT4; test: cytotoxicity to cultured tumor cell line MOLT4; type: cell-based, human
Description: as §1, §2

[4] = cytotoxicity to cultured tumor cell line MOLT4; type: cell-based, human; conditions: human, molt4 cells, read-out: Suppression
Description: as §1, §2

[5] = system: mouse allogenic MLR (BALB/c mouse spleen cells stimulated with C57BL/6 mouse spleen cells); test: mouse allogenic mixed lymphocyte reaction (MLR), 3H-thymidine uptake; type: cell-based
Description: The immunosuppressive activity of the compounds was assayed on the basis of mouse allogenic mixed lymphocyte reaction (hereinafter sometimes abbreviated as MLR). Mouse allogenic MRL was carried out using a mixed culture of BALB/c mouse (H-2^d) spleen cells as the responder cells and mitomycin C-treated C57BL/6 ([…]) mouse spleen cells as the stimulator cells in equal amounts.
The responder cells were prepared as follows:
The spleen was resected from 5- to 6-week-old BALB/c mice, and single cell suspension of spleen cells was prepared by using the RPMI1640 culture medium (containing 60 μg/ml of kanamycin sulfate, 2 mM of L-glutamine, 10 mM of N-2-hydroxyethylpiperazine-N'-2-ethanesulphonate (HEPES) and 0.1% sodium hydrogencarbonate) to which heat-inactivated fetal calf serum (hereinafter sometimes abbreviated as FCS) had been added to 5%. After hemolytic treatment, the cell suspension was adjusted to a concentration of 10^7 cells/ml with the RPMI1640 culture medium supplemented with 10^-4 M 2-mercapto-ethanol and 20% FCS, and was used as the responder cell suspension.
The stimulator cells were prepared as follows: The spleen was resected from 5- to 6-week-old male C57BL/6 mice, and a single cell suspension of spleen cells was prepared by using the RPMI1640 culture medium. After hemolytic treatment, the cells were treated with 40 μg/ml of mitomycin C at 37° C. for 60 minutes. After washing three times, the cell suspension was adjusted to a concentration of 10^7 cells/ml with the RPMI1640 culture medium supplemented with 10^-4 M 2-mercapto-ethanol and 20% FCS, and was used as the stimulator cell suspension.
The blastogenesis of lymphocytes was assayed using ^3 H-thymidine uptake as an index. That is, after termination of culture, 18.5 KBq/well of ^3 H-thymidine was added thereto and the suspension was cultured for 4 hours. Cells were harvested by a cell-harvester, and the radioactivity incorporated into the cells was determined by a liquid scintillation counter, which was used as an index of blastogenesis of lymphocytes in the mouse allogenic MLR. The suppression of the mouse allogenic MLR was evaluated by calculating the percent suppression by the following formula.
The test substance dissolved in methanol was diluted with the RPMI1640 culture medium and put to use.

[6] = system: U937; test: cytotoxicity to cultured tumor cell line U937; type: cell-based, human
Description: as §1, §2

[7] = cytotoxicity to cultured tumor cell line U937; type: cell-based, human; conditions: human, u937 cells; 0.1 μg/ml; read-out: Suppression
Description: as §1, §2

[8] = cytotoxicity to cultured tumor cell line HL60; conditions: human, hl60 cells, Suppression
Description: as §1, §2

[9] = system: HL60; test: cytotoxicity to cultured tumor cell line HL60
Description: as §1, §2

## CCCCCCC(CCCCCC/C=C/C[C@@H](O)[C@H](O)[C@@](N)(CO)C(=O)O)=NO [Example 4]
[1]; 0.1 μg/ml
  cytotoxicity at 72 h: 0%
[1]; 1 μg/ml
  cytotoxicity at 72 h: 0.6%
[1]; 10 μg/ml
  cytotoxicity at 72 h: 0%
[2]; 0.1 μg/ml
  Absorbancy: 1.145 ± 0.038
[2]; 1 μg/ml
  Absorbancy: 1.129 ± 0.021
[2]; 10 μg/ml
  Absorbancy: 1.148 ± 0.032
[3]; 0.1 μg/ml
  Absorbancy: 1.026 ± 0.026
[3]; 1 μg/ml
  Absorbancy: 1.037 ± 0.027
[3]; 10 μg/ml
  Absorbancy: 1.014 ± 0.055
[4]; 0.1 μg/ml
  cytotoxicity at 72 h: 11%
[4]; 1 μg/ml
  cytotoxicity at 72 h: 10.1%
[4]; 10 μg/ml
  cytotoxicity at 72 h: 12.1%
[5]; 0.0001 μg/ml, Table 1A
  3H-thymidine uptake: 16905 cpm
[5]; 0.001 μg/ml, Table 1A
  3H-thymidine uptake: 15970 cpm
[5]; 0.01 μg/ml, Table 1A
  3H-thymidine uptake: 15399 cpm
[5]; 0.1 μg/ml, Table 1A
  3H-thymidine uptake: 1637 cpm
[5]; 1 μg/ml, Table 1A
  3H-thymidine uptake: 1477 cpm
[5]; Mus musculus, Lymphocyte, 0.0001 μg/ml, Table 1A, read-out: Suppression
  inhibition at 0.0001 µg/mL: 9.1%
[5]; Mus musculus, Lymphocyte, 0.001 μg/ml, Table 1A, read-out: Suppression
  inhibition at 0.001 µg/mL: 14.7%
[5]; Mus musculus, Lymphocyte, 0.01 μg/ml, Table 1A, read-out: Suppression
  inhibition at 0.01 µg/mL: 18.1%
[5]; Mus musculus, Lymphocyte, 0.1 μg/ml, Table 1A, read-out: Suppression
  inhibition at 0.1 µg/mL: 99.9%
[5]; Mus musculus, Lymphocyte, 1 μg/ml, Table 1A, read-out: Suppression
  inhibition at 1 µg/mL: 100%
[5]; Mus musculus, Lymphocyte, read-out: 50%-inhibition concentration (IC50) in mouse allogenic MLR
  IC50: 0.025 µg/mL (≈ 0.06 µM)
[6]; 0.1 μg/ml
  Absorbancy: 0.765 ± 0.033
[6]; 1 μg/ml
  Absorbancy: 0.744 ± 0.017
[6]; 10 μg/ml
  Absorbancy: 0.750 ± 0.048
[7]
  cytotoxicity at 72 h: 0%
[8]; 0.1 μg/ml
  cytotoxicity at 72 h: 6%
[8]; 1 μg/ml
  cytotoxicity at 72 h: 0%
[8]; 10 μg/ml
  cytotoxicity at 72 h: 8.2%
[9]; 0.1 μg/ml
  Absorbancy: 1.401 ± 0.028
[9]; 1 μg/ml
  Absorbancy: 1.493 ± 0.031
[9]; 10 μg/ml
  Absorbancy: 1.368 ± 0.087
